Measurements from patent US10519177B2, “Heterocyclic compounds and uses thereof” (Plexxikon Inc., priority 2013, dated 2019).
Read-outs that look alike come from different tables or passages of the source.

What was measured:
MV-4-11 cells = assay: Oncology cell growth assay MV-4-11 (CellTiter Glo); format: cell-based; conditions: Homo sapiens, MV4-11, 72 h, read-out: Cell activity (IC50 μM) MV-4-11 3d-Growth
Outline: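 Growth read by CellTiter Glo luminescence after 72 h compound treatment of MLL-AF4-bearing MV-4-11 cells (3000/well). Titration: 8 points, 1:3 steps, maximum 10 μM, 0.2% DMSO final. Data normalized to DMSO wells, four-parameter fit gives pIC50.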

BRD4-BD12 (1-477) = BRD4-BD12 (1-477) (Homo sapiens (Human), UniProt O60885); assay: Alphascreen binding assay BRD4-BD12; conditions: BRD4(1 2) H4; read-out: Biochemical activity (IC50 μM) BRD4(1 2) H4
Outline: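 In this competition format, compounds displace a biotinylated tetra-acetyl H4 peptide from E. coli-expressed human BRD4 bromodomain constructs captured on nickel chelate beads. The reaction runs at pH 7.5 with 2 mM DTT and detergent for 1 h at room temperature before a 30 min bead step.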

bromodomain = assay: at least one of the bromodomain cell assays of Example 57; format: cell-based; conditions: at least one of the bromodomain cell assays described in Example 57; read-out: IC50 in at least one of the bromodomain cell assays

| SMILES | IC50 (MV-4-11 cells; MV-4-11, 3d growth) [µM] | IC50 (BRD4-BD12 (1-477)) [µM] | IC50 (bromodomain) [nM] | IC50 (MV-4-11 cells) [µM] |
| --- | --- | --- | --- | --- |
| Cc1noc(C)c1-c1cnc2c(-c3ccc(C#N)nc3)cn(C(c3ccccn3)c3ccccn3)c2c1 [P-0597, 5-[1-[bis(2-pyridyl)methyl]-6-(3,5-dimethylisoxazol-4-yl)pyrrolo[3,2-b]pyridin-3-yl]pyridine-2-carbonitrile] | < 1 | < 1 | < 10000 |  |
| Cc1noc(C)c1-c1cnc2c(-c3ccnc(C4CC4)c3)cn(CC3CCC(F)(F)CC3)c2c1 [P-0407, 4-[3-(2-cyclopropyl-4-pyridyl)-1-[(4,4-difluorocyclohexyl)methyl]pyrrolo[3,2-b]pyridin-6-yl]-3,5-dimethyl-isoxazole] |  | < 1 | < 10000 | < 1 |
| Cc1noc(C)c1-c1cnc2c(-c3cnn(CC(F)(F)F)c3)cn(Cc3cccnn3)c2c1 [P-0531, 3,5-dimethyl-4-[1-(pyridazin-3-ylmethyl)-3-[1-(2,2,2-trifluoroethyl)pyrazin-4-yl]pyrrolo[3,2-b]pyridin-6-yl]isoxazole] | < 1 | < 1 | < 10000 |  |
| Cc1noc(C)c1-c1cnc2c(-c3ccc(C(=O)O)cc3)cn(CC3CCCCCC3)c2c1 [P-0586, 4-[1-(cycloheptylmethyl)-6-(3,5-dimethylisoxazol-4-yl)pyrrolo[3,2-b]pyridin-3-yl]benzoic acid] | < 1 | < 1 | < 10000 |  |
| Cc1noc(C)c1-c1cnc2c(-c3ccc(C#N)nc3)cn([C@@H](C)c3ccccn3)c2c1 [P-0595, 5-[6-(3,5-dimethylisoxazol-4-yl)-1-[(1S)-1-(2-pyridyl)ethyl]pyrrolo[3,2-b]pyridin-3-yl]pyridine-2-carbonitrile] | < 1 | < 1 | < 10000 |  |
| Cc1noc(C)c1-c1cnc2c(-c3ccc(F)c(C(=O)O)c3)cn(CC3CCC(F)(F)CC3)c2c1 [P-0414, 5-[1-[(4,4-difluorocyclohexyl)methyl]-6-(3,5-dimethylisoxazol-4-yl)pyrrolo[3,2-b]pyridin-3-yl]-2-fluoro-benzoic acid] |  | < 1 | < 10000 | < 1 |
| Cc1nnc(C)n1-c1cnc2c(-c3ccc(C(=O)O)cc3)cn(CC3CCC(F)(F)CC3)c2c1 [P-0420, 4-[1-[(4,4-difluorocyclohexyl)methyl]-6-(3,5-dimethyl-1,2,4-triazol-4-yl)pyrrolo[3,2-b]pyridin-3-yl]benzoic acid] |  | < 1 | < 10000 | 10 to 200 |
| COC(=O)c1ccc(-c2cn(CC3(F)CCC(F)(F)CC3)c3cc(-c4c(C)noc4C)cnc23)cn1 [P-0454, methyl 5-[6-(3,5-dimethylisoxazol-4-yl)-1-[(1,4,4-trifluorocyclohexyl)methyl]pyrrolo[3,2-b]pyridin-3-yl]pyridine-2-carboxylate] | < 1 | < 1 | < 10000 |  |
| Cc1noc(C)c1-c1cnc2c(-c3cccc(CC(=O)O)c3)cn(CC3(F)CCCCC3)c2c1 [P-0384, 2-[3-[6-(3,5-dimethylisoxazol-4-yl)-1-[(1-fluorocyclohexyl)methyl]pyrrolo[3,2-b]pyridin-3-yl]phenyl]acetic acid] |  | < 1 | < 10000 | < 1 |
| CNC(=O)Nc1ccc(-c2cn(CC3(F)CCCCC3)c3cc(-c4c(C)noc4C)cnc23)cc1 [P-0522, 1-[4-[6-(3,5-dimethylisoxazol-4-yl)-1-[(1-fluorocyclohexyl)methyl]pyrrolo[3,2-b]pyridin-3-yl]phenyl]-3-methyl-urea] | < 1 | < 1 | < 10000 |  |
| COC(=O)c1ccc(-c2cn(C(C)(C)c3ccccn3)c3cc(-c4c(C)noc4C)cnc23)cc1 [P-0547, methyl 4-[6-(3,5-dimethylisoxazol-4-yl)-1-[1-methyl-1-(2-pyridyl)ethyl]pyrrolo[3,2-b]pyridin-3-yl]benzoate] | < 1 | < 1 | < 10000 |  |
